Source: ChEMBL document CHEMBL5247620, “Lupane derivatives containing various aryl substituents in the position 3 have selective cytostatic effect in leukemic cancer cells including resistant phenotypes” (Eur J Med Chem, 2022)
The source made the active and inactive calls. The rule behind the calls is not given here.

Experiments:
[1] = system: CCRF-CEM; assay: Induction of apoptosis in human CCRF-CEM cells assessed as early apoptotic cells at 1 times IC50 concentration incubated for 24 hrs by annexin V FITC/propidium iodide staining based flow cytometry (reference value: 2.6 %); format: functional
[2] = Efflux ratio of apparent permeability from basolateral to apical side over apical to basolateral side in human Caco-2 cells incubated for 2 hr by high-throughput spectrometric analysis; format: ADME, cell-based
[3] = system: CCRF-CEM; assay: Induction of apoptosis in human CCRF-CEM cells assessed as decrease in Rb phosphorylation level at Ser807/811 at 5 times IC50 concentration incubated for 24 hrs by western blot assay; format: functional, cell-based
[4] = system: CEM-DNR; assay: Cytotoxicity against human CEM-DNR cells assessed as inhibition of cell growth incubated for 72 hrs by MTS assay; format: functional, cell-based
[5] = system: CCRF-CEM; assay: Induction of cell cycle arrest in human CCRF-CEM cells assessed as accumulation of cells at G1 phase at 5 times IC50 concentration incubated for 24 to 72 hrs by propidium iodide staining based flow cytometry; format: functional; conditions: time 24-72 hrs
[6] = system: CCRF-CEM; assay: Induction of apoptosis in human CCRF-CEM cells assessed as decrease in cell number at 5 times IC50 concentration incubated for 24 to 74 hrs by annexin V FITC/propidium iodide staining based flow cytometry; format: functional; conditions: time 24-74 hrs
[7] = Plasma stability in human assessed as compound remaining at 2 uM measured after 30 mins by RF-MS analysis; format: ADME, cell-free; conditions: read-out: Stability
[8] = Microsomal stability in human liver microsome as compound remaining at 2 uM measured after 15 mins in presence of NADPH by RF-MS analysis; format: ADME; conditions: liver microsomes, read-out: Stability
[9] = Plasma stability in human assessed as compound remaining at 2 uM measured after 60 mins by RF-MS analysis; format: ADME, cell-free; conditions: read-out: Stability
[10] = system: CCRF-CEM; assay: Induction of cell cycle arrest in human CCRF-CEM cells assessed as decrease of cell population at S phase at 1 times IC50 concentration incubated for 24 to 72 hrs by propidium iodide staining based flow cytometry; format: functional; conditions: time 24-72 hrs
[11] = system: CCRF-CEM; assay: Induction of apoptosis in human CCRF-CEM cells assessed as late apoptotic cells at 5 times IC50 concentration incubated for 24 hrs by annexin V FITC/propidium iodide staining based flow cytometry (reference value: 1.4 %); format: functional
[12] = system: U2OS; assay: Cytotoxicity against human U2OS cells assessed as inhibition of cell growth incubated for 72 hrs by MTS assay; format: functional, cell-based
[13] = Cytotoxicity against human K562-Tax cells assessed as inhibition of cell growth incubated for 72 hrs by MTS assay; format: functional, cell-based
[14] = Chemical stability of the compound in PBS buffer assessed as compound remaining at pH 7.4 at 2 uM measured after 15 mins by RF-MS analysis; format: physicochemical; conditions: read-out: Stability
[15] = Chemical stability of the compound in PBS buffer assessed as compound remaining at pH 7.4 at 2 uM measured after 120 mins by RF-MS analysis; format: physicochemical; conditions: read-out: Stability
[16] = Apparent permeability across apical to basolateral side in dog MDCK-MDR1 cells incubated for 1 hr by high-throughput spectrometric analysis; format: ADME, cell-based, Canis lupus familiaris
[17] = system: CCRF-CEM; assay: Induction of apoptosis in human CCRF-CEM cells assessed as decrease in cyclin A protein expression level at 5 times IC50 concentration incubated for 24 hrs by western blot assay; format: functional, cell-based
[18] = system: CCRF-CEM; assay: Induction of apoptosis in human CCRF-CEM cells assessed as decrease in Bcl-2 protein expression level at 5 times IC50 concentration incubated for 24 hrs by western blot assay; format: functional, cell-based
[19] = Cytotoxicity against human p53HCT116 cells assessed as inhibition of cell growth incubated for 72 hrs by MTS assay; format: functional, cell-based; conditions: p53HCT116, 72 h
[20] = Plasma protein binding in human assessed as fraction bound at 10 uM incubated for 4 hrs by rapid equilibrium dialysis based RF-MS analysis; format: ADME, cell-free; conditions: read-out: PPB (converted)
[21] = Microsomal stability in human liver microsome as compound remaining at 2 uM measured after 60 mins in presence of NADPH by RF-MS analysis; format: ADME; conditions: liver microsomes, read-out: Stability
[22] = Cytotoxicity against human MRC5 cells assessed as inhibition of cell growth incubated for 72 hrs by MTS assay; format: toxicity, cell-based
[23] = system: CCRF-CEM; assay: Induction of apoptosis in human CCRF-CEM cells assessed as decrease in cell number at 1 times IC50 concentration incubated for 24 to 74 hrs by annexin V FITC/propidium iodide staining based flow cytometry; format: functional; conditions: time 24-74 hrs
[24] = system: CCRF-CEM; assay: Induction of apoptosis in human CCRF-CEM cells assessed as viable cells at 1 times IC50 concentration incubated for 24 hrs by annexin V FITC/propidium iodide staining based flow cytometry (reference value: 96 %); format: functional
[25] = system: CCRF-CEM; assay: Cytotoxicity against human CCRF-CEM cells assessed as inhibition of cell growth incubated for 72 hrs by MTS assay; format: functional, cell-based
[26] = system: CCRF-CEM; assay: Induction of apoptosis in human CCRF-CEM cells assessed as decrease in Rb phosphorylation level at Ser780 at 5 times IC50 concentration incubated for 24 hrs by western blot assay; format: functional, cell-based
[27] = system: CCRF-CEM; assay: Induction of apoptosis in human CCRF-CEM cells assessed as late apoptotic cells at 1 times IC50 concentration incubated for 24 hrs by annexin V FITC/propidium iodide staining based flow cytometry (reference value: 1.4 %); format: functional
[28] = system: CCRF-CEM; assay: Induction of apoptosis in human CCRF-CEM cells assessed as early apoptotic cells at 5 times IC50 concentration incubated for 24 hrs by annexin V FITC/propidium iodide staining based flow cytometry (reference value: 2.6 %); format: functional
[29] = Plasma stability in human assessed as compound remaining at 2 uM measured after 120 mins by RF-MS analysis; format: ADME, cell-free; conditions: read-out: Stability
[30] = Chemical stability of the compound in PBS buffer assessed as compound remaining at pH 7.4 at 2 uM measured after 30 mins by RF-MS analysis; format: physicochemical; conditions: read-out: Stability
[31] = system: K562; assay: Cytotoxicity against human K562 cells assessed as inhibition of cell growth incubated for 72 hrs by MTS assay; format: functional, cell-based; conditions: K562, 72 h
[32] = Efflux ratio of apparent permeability from basolateral to apical side over apical to basolateral side in dog MDCK-MDR1 cells incubated for 1 hr by high-throughput spectrometric analysis; format: ADME, cell-based, Canis lupus familiaris
[33] = system: CCRF-CEM; assay: Induction of apoptosis in human CCRF-CEM cells assessed as viable cells at 5 times IC50 concentration incubated for 24 hrs by annexin V FITC/propidium iodide staining based flow cytometry (reference value: 96 %); format: functional
[34] = Plasma stability in human assessed as compound remaining at 2 uM measured after 15 mins by RF-MS analysis; format: ADME, cell-free; conditions: read-out: Stability
[35] = Apparent permeability across apical to basolateral side in human Caco-2 cells incubated for 2 hr by high-throughput spectrometric analysis; format: ADME, cell-based
[36] = Cytotoxicity against human BJ cells assessed as inhibition of cell growth incubated for 72 hrs by MTS assay; format: toxicity, cell-based
[37] = Apparent permeability across apical to basolateral side in human Caco-2 cells assessed as drug recovery incubated for 2 hr by high-throughput spectrometric analysis; format: ADME, cell-based; conditions: read-out: Drug recovery
[38] = system: CCRF-CEM; assay: Induction of cell cycle arrest in human CCRF-CEM cells assessed as decrease of cell population at S phase at 5 times IC50 concentration incubated for 24 to 72 hrs by propidium iodide staining based flow cytometry; format: functional; conditions: time 24-72 hrs
[39] = Apparent permeability across apical to basolateral side in dog MDCK-MDR1 cells assessed as drug recovery incubated for 1 hr by high-throughput spectrometric analysis; format: ADME, cell-based, Canis lupus familiaris; conditions: read-out: Drug recovery
[40] = system: HCT-116; assay: Cytotoxicity against human HCT-116 cells assessed as inhibition of cell growth incubated for 72 hrs by MTS assay; format: functional, cell-based; conditions: HCT-116, 72 h
[41] = Microsomal stability in human liver microsome as compound remaining at 2 uM measured after 30 mins in presence of NADPH by RF-MS analysis; format: ADME; conditions: liver microsomes, read-out: Stability
[42] = system: CCRF-CEM; assay: Induction of apoptosis in human CCRF-CEM cells assessed as effect on total Rb protein level at 1 times IC50 concentration incubated for 24 hrs by western blot assay; format: functional, cell-based
[43] = system: A549; assay: Cytotoxicity against human A549 cells assessed as inhibition of cell growth incubated for 72 hrs by MTS assay; format: functional, cell-based; conditions: A549, 72 h
[44] = Chemical stability of the compound in PBS buffer assessed as compound remaining at pH 7.4 at 2 uM measured after 60 mins by RF-MS analysis; format: physicochemical; conditions: read-out: Stability
[45] = system: CCRF-CEM; assay: Induction of cell cycle arrest in human CCRF-CEM cells assessed as accumulation of cells at G1 phase at 1 times IC50 concentration incubated for 24 to 72 hrs by propidium iodide staining based flow cytometry; format: functional; conditions: time 24-72 hrs
[46] = system: CCRF-CEM; assay: Induction of apoptosis in human CCRF-CEM cells assessed as effect on total Rb protein level at 5 times IC50 concentration incubated for 24 hrs by western blot assay; format: functional, cell-based

C=C(C)[C@@H]1CC[C@]2(C(=O)O)CC[C@]3(C)[C@H](CC[C@@H]4[C@@]5(C)CC=C(c6cccc(O)c6)C(C)(C)[C@@H]5CC[C@]43C)[C@@H]12
Activity [1]: 3.4%
efflux ratio at 2 h [2]: 1.72
Activity [3]: Active
IC50 [4]: 4 µM
Activity [5]: 20%
Activity [6]: Active
remaining at 0.5 h, 2 µM [7]: 87.4%
remaining at 0.25 h, 2 µM [8]: 99.3%
remaining at 1 h, 2 µM [9]: 85.6%
Activity [10]: Active
Activity [11]: 5%
IC50 [12]: 17 µM
IC50 [13]: 3.8 µM
remaining at 0.25 h, 2 µM [14]: 99.6%
remaining at 2 h, 2 µM [15]: 105%
Papp A→B at 1 h [16]: 8.84 ×10⁻⁶ cm/s
Activity [17]: Active
Activity [18]: Active
IC50 [19]: 12 µM
fraction unbound at 4 h, 10 µM [20]: 0.334
remaining at 1 h, 2 µM [21]: 95.8%
IC50 at 72 h [22]: 19 µM
Activity [23]: Active
Activity [24]: 94.5%
IC50 [25]: 3.9 µM
Activity [26]: Active
Activity [27]: 2.1%
Activity [28]: 6%
remaining at 2 h, 2 µM [29]: 86.7%
remaining at 0.5 h, 2 µM [30]: 93.5%
IC50 [31]: 19 µM
efflux ratio at 1 h [32]: 1.29
Activity [33]: 89%
remaining at 0.25 h, 2 µM [34]: 90.3%
Papp A→B at 2 h [35]: 2.32 ×10⁻⁶ cm/s
IC50 at 72 h [36]: 31 µM
recovery at 2 h [37]: 97.5%
Activity [38]: Active
recovery at 1 h [39]: 67.6%
IC50 [40]: 4 µM
remaining at 0.5 h, 2 µM [41]: 97.8%
Activity [42]: inactive
IC50 [43]: 14 µM
remaining at 1 h, 2 µM [44]: 102%
Activity [45]: Active
Activity [46]: inactive
